Results from patent publication US8404869B2, “Phenanthrenequinone-based compound and pharmaceutical composition containing the same for the treatment or prevention of disease involving metabolic syndrome” (Mazence Inc., priority 2007, dated 2013).

How the values were obtained:
[1] = test system: C57BL/6JL Lep ob/Lep ob mice; test: Blood biomarkers (lipid, glucose, enzyme levels) in ob/ob mice; type: in vivo; set-up: unit not given here; details: after mixed-feed of 0.4% for 18 days
Experimental: (§1) 10-week-old C57BL/6JL Lep ob/Lep ob male mice having obesity characteristics and predisposition were purchased from Daehan Biolink Co., Ltd. (Chungchongbuk-do, Korea). Animals were raised in a breeding room maintained at a temperature of 23° C., 55% humidity, illumination of 300 to 500 lux, a 12-h light/dark (L/D) cycle, and ventilation of 10 to 18 times/hr. Animals were fed ad libitum pellets of Purina Rodent Laboratory Chow 5001 (purchased from Purina Mills Inc., St. Louis, Mo., USA) as a solid feed for experimental animals and tap water as drinking water. Mice were allowed to acclimate to new environment of the breeding room for two weeks and were then administered some pyrano-3,4-phenanthrenequinone or furano-3,4-naphthoquinone derivatives synthesized according to the present invention at mixed-feed of 0.4% for 18 days. Observation was made on changes in body weight, blood glucose and dietary intake, with respect to a time course of administration. After administration was complete, confirm changes in glucose, lipid and enzyme levels in blood.
(§2) For comparison, the same experiments were carried out for the subject (negative control group) to which the active ingredient was not administered, and subject (positive control group) to which Cryptotanshinone, extracted from Danshen by a method as set forth in Example 1 of the Korean Patent Application No. 2004-0116339 by the present applicant, was administered by the above-mentioned condition.

[2] = test system: C57BL/6JL Lep ob/Lep ob mice; test: Weight loss effects in obese mice (ob/ob); type: in vivo; details: mixed-feed of 0.4% for 18 days; for change in vivo at 0.4 % in feed: Mus musculus, po, 432 h, (Final BW−Initial BW)/Initial BW×100, read-out: Increase in BW; for Final BW: ob/ob male mice
Experimental: as §1, §2
Herein, ‘Increase in BW’ is calculated as the following; Increase in BW=(Final BW−Initial BW)/Initial BW×100

AMPK = test: Determination of AMPK activation in differentiated C2C12 myoblast cells (SAMS peptide, [γ-32P]ATP); type: cell-based; details: C2C12 myoblast cells treated at 5 μg/ml; DMSO (0.5%) control = 1
Experimental: Myoblast cells, C2C12, were cultured in DMEM containing 10% bovine calf serum. When a cell density reached a range of about 85% to 90%, the culture medium was replaced with a medium containing 1% bovine calf serum to induce differentiation of cells. The thus-differentiated myoblast cells were treated with samples synthesized in Examples 1 through 16 at a concentration of 5 μg/ml, and compared with a control group. Enzymatic activity of AMPK was determined as follows. Firstly, C2C12 cells were lysed to obtain protein extracts and then ammonium sulfate was added to a final concentration of 30%, thereby precipitating proteins. Protein precipitates were dissolved in a buffer (62.5 mM Hepes, pH 7.2, 62.5 mM NaCl, 62.5 mM NaF, 1.25 mM Na pyrophosphate, 1.25 mM EDTA, 1 mM DTT, 0.1 mM PMSF, and 200 μM AMP). Thereafter, 200 μM SAMS peptide (HMRSAMSGLHLVKRR: the underlined serine residue is a phosphorylation site, as an AMPK phosphorylation site of acetyl-CoA carboxylase) and [γ-32P]ATP were added thereto and reactants were reacted for 10 minutes at 30° C. This was followed by spotting of the resulting reaction solution on p81 phosphocellulose paper. The p81 paper was washed with a 3% phosphoric acid solution and radioactivity thereof was measured. For each reaction condition, reactions involving no SAMS peptide were also conducted and basic values were subtracted from the thus-observed values.

SMILES | GOT [1] | GPT [1] | HDL chol [1] | LDL chol [1] | T. chol [1] | glucose [1] | triglyceride [1] | change in vivo at 0.4 % in feed [2] | Final BW [2] | AMPK fold (AMPK)
COc1ccc2ccc3c(c2c1)C(=O)C(=O)C1=C3OC(C)C1 (centres unmarked) [Example 15, 8-Methoxy-2-methyl-1,2-dihydro-phenanthro[1,2-b]furan-10,11-dione] | 312.5 | 206.7 | 46.0 | 8.75 | 142.0 | 155 | 79.0 | -6.7% | 48.5 ± 1.5 g | 2.2 fold
Cc1cc2c(c3ccccc13)C(=O)C(=O)C1=C2OC(C)(C)CC1 [Example 16, 3,3,6-Trimethyl-2,3-dihydro-1H-4-oxa-chrysene-11,12-dione] | 342.5 | 197.5 | 47.0 | 12.00 | 140.0 | 135 | 82.3 | -7.2% | 48.0 ± 1.9 g | 1.9 fold
